The source of these data is patent US20160257697A1, “THIOPHENE-SUBSTITUTED TETRACYCLIC COMPOUNDS AND METHODS OFUSE THEREOF FOR THE TREATMENT OF VIRAL DISEASES” (priority 2013, published 2016).

What is called IC50 is the concentration that gives 50% inhibition.

What all share (assay): microbe, parasite or virus in culture
Common to all, as to assay type: cell-based, Hepatitis C virus (HCV)

The test system of test [1] is HCV replicon 1AY93H. The note with it: Replicon Assay A. The gist of the method: (§1)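 HCV RNA levels were calculated from Ct values (minus intercept, divided by slope) of a Neo primer/probe standard curve, with cyclophilin quantified the same way. Cells were seeded at 2000/well and incubated with compound for 3 days in 5% serum and 0.5% DMSO.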
Test [2] relates to HCV replicon 1A. To be noted: replicon 1A, Replicon Assay A. A digest of the protocol:
as §1
A general note: In antiviral work, replicon cells carry a viral genome segment that copies itself.

Test [3] relates to HCV replicon 2B. To be noted: Replicon Assay A. The gist of the method: as §1
Where [4] appears, read: read-out: 1A Y93H IC50, replicon 1AY93H.
Where [5] appears, read: Hepatitis C virus, read-out: 1A Y93H IC50 (nM), replicon 1AY93H.
The mark [6] stands for this setting: Hepatitis C virus, read-out: 2B IC50 (nM), replicon 2B.

Read-outs that look alike come from different tables or passages of the source.

As to `COC(=O)NC(C(=O)N1CCC[C@H]1c1ncc(-c2ccc3c(c2)cc2n3C(c3ccc(C(C)C)s3)Oc3cc(-c4cnc([C@@H]5CCCN5C(=O)[C@@H](NC(=O)OC)C(C)C)[nH]4)cc(F)c3-2)[nH]1)C1CCOC(C)(C)C1` (single isomer, unassigned) [Compound 236], the concentration for half-maximal inhibition (IC50) in test [1] (setting [4]) is 0.18 nM; in test [2], 1.7 pM; in test [3] (read-out: 2B IC50, replicon 2B) it was 0.24 nM.
Turning to `COC(=O)NC(C(=O)N1CCC[C@H]1c1ncc(-c2ccc3c(c2)cc2n3C(c3ccc(C(C)C)s3)Oc3cc(-c4cnc([C@@H]5CCCN5C(=O)[C@@H](NC(=O)OC)C(C)C)[nH]4)cc(F)c3-2)[nH]1)C1CCOC(C)(C)C1` (single isomer, unassigned) [Compound 237], the IC50 amounted to 0.21 nM in test [1] (setting [4]); 1.2 pM in test [2]; 0.4 nM in test [3] (read-out: 2B IC50, replicon 2B).
Taken in the same sequence, the figures for `COC(=O)NC(C(=O)N1CCC[C@H]1c1ncc(-c2ccc3c(c2)cc2n3C(c3ccc(C(C)C)s3)Oc3cc(-c4cnc([C@@H]5CCCN5C(=O)[C@@H](NC(=O)OC)C(C)C)[nH]4)cc(F)c3-2)[nH]1)C1CCOC(C)(C)C1` (single isomer, unassigned) [Compound 238] were 3.12 nM, 130 pM and 7.05 nM.
For `COC(=O)NC(C(=O)N1CCC[C@H]1c1ncc(-c2ccc3c(c2)cc2n3C(c3ccc(C(C)C)s3)Oc3cc(-c4cnc([C@@H]5CCCN5C(=O)[C@@H](NC(=O)OC)C(C)C)[nH]4)cc(F)c3-2)[nH]1)C1CCOC(C)(C)C1` (single isomer, unassigned) [Compound 239] the same measures were 6.6 nM, 98.2 pM and 9.48 nM.
Taken in the same sequence, the figures for `COC(=O)NC(C(=O)N1CCC[C@H]1c1ncc(-c2ccc3c(c2)cc2n3C(c3ccc(C(C)C)s3)Oc3cc(-c4cnc([C@@H]5CCCN5C(=O)[C@@H](NC(=O)OC)C(C)C)[nH]4)cc(F)c3-2)[nH]1)C1CCOC(C)(C)C1` (single isomer, unassigned) [Compound 242] were 0.75 nM, 1.1 pM and 4.42 nM.
For `COC(=O)NC(C(=O)N1CCC[C@H]1c1ncc(-c2ccc3c(c2)cc2n3C(c3ccc(C(C)C)s3)Oc3cc(-c4cnc([C@@H]5CCCN5C(=O)[C@@H](NC(=O)OC)C(C)C)[nH]4)cc(F)c3-2)[nH]1)C1CCOC(C)(C)C1` (single isomer, unassigned) [Compound 243], the IC50 amounted to 0.87 nM in test [1] (setting [4]); 1.5 pM in test [2]; 6.81 nM in test [3] (read-out: 2B IC50, replicon 2B).
In the case of `COC(=O)NC(C(=O)N1CCC[C@H]1c1ncc(-c2cc(F)c3c(c2)OC(c2ccc(C(C)C)s2)n2c-3cc3cc(-c4cnc([C@@H]5CCCN5C(=O)[C@@H](NC(=O)OC)C(C)C)[nH]4)ccc32)[nH]1)C1CCOC(C)(C)C1` (single isomer, unassigned) [Compound 246], the values for the IC50 in test [1] (setting [5]), in test [2] (Hepatitis C virus) and in test [3] (setting [6]) were 0.58 nM, 1.1 pM and 0.27 nM, respectively.
On to `COC(=O)NC(C(=O)N1CCC[C@H]1c1ncc(-c2cc(F)c3c(c2)OC(c2ccc(C4CCC4)s2)n2c-3cc3cc(-c4cnc([C@@H]5CCCN5C(=O)[C@@H](NC(=O)OC)C5CCOCC5)[nH]4)ccc32)[nH]1)C(C)(C)F` (single isomer, unassigned) [Compound 249], for which the IC50 in test [1] (setting [4]) was 1.18 nM; in test [2], 22.8 pM; in test [3] (read-out: 2B IC50, replicon 2B), 5.04 nM.
On to `CCc1ccc(C2Oc3cc(-c4cnc([C@@H]5CCCN5C(=O)[C@@H](NC(=O)OC)C(C)C)[nH]4)cc(F)c3-c3cc4cc(-c5cnc([C@@H]6C[C@@H](F)CN6C(=O)C(NC(=O)OC)C6CCOC(C)(C)C6)[nH]5)ccc4n32)s1` (single isomer, unassigned) [Compound 254], for which the IC50 in test [1] (setting [4]) is 0.12 nM; in test [2] it was 1.1 pM; in test [3] (read-out: 2B IC50, replicon 2B), 3.49 nM.
For `CCc1ccc(C2Oc3cc(-c4cnc([C@@H]5CCCN5C(=O)[C@@H](NC(=O)OC)C(C)C)[nH]4)cc(F)c3-c3cc4cc(-c5cnc([C@@H]6C[C@@H](F)CN6C(=O)C(NC(=O)OC)C6CCOC(C)(C)C6)[nH]5)ccc4n32)s1` (single isomer, unassigned) [Compound 260] the same measures were 0.047 nM, 1 pM and 11.7 nM.
For `CCc1ccc(C2Oc3cc(-c4cnc([C@@H]5CCCN5C(=O)[C@@H](NC(=O)OC)C(C)C)[nH]4)cc(F)c3-c3cc4cc(-c5cnc([C@@H]6C[C@@H](F)CN6C(=O)C(NC(=O)OC)C6CCOC(C)(C)C6)[nH]5)ccc4n32)s1` (single isomer, unassigned) [Compound 261] the same measures were 0.043 nM, 1.5 pM and 9.84 nM.
For `COC(=O)NC(C(=O)N1CCC[C@H]1c1ncc(-c2ccc3c(c2)cc2n3C(c3ccc(C4CC4)s3)Oc3cc(-c4cnc([C@@H]5CCCN5C(=O)[C@@H](NC(=O)OC)C(C)C)[nH]4)cc(F)c3-2)[nH]1)C1CN(C(=O)C2CC2)C1` (single isomer, unassigned) [Compound 269] the same measures were 0.28 nM, 2.6 pM and 0.25 nM.
For `COC(=O)NC(C(=O)N1[C@@H]2C[C@@H]2C[C@H]1c1ncc(-c2ccc3c(c2)cc2n3C(c3ccc(C4CC4)s3)Oc3cc(-c4cnc([C@@H]5CCCN5C(=O)[C@@H](NC(=O)OC)C(C)C)[nH]4)cc(F)c3-2)[nH]1)C1CCOC(C)(C)C1` (single isomer, unassigned) [Compound 278], the half-maximal inhibitory concentration (IC50) in test [1] (setting [4]) is 0.161 nM; in test [2] it was 1.8 pM; in test [3] (read-out: 2B IC50, replicon 2B), 0.3 nM.
For `CC[C@@H]1CC(C(NC(=O)OC)C(=O)N2CCC[C@H]2c2ncc(-c3ccc4c(c3)cc3n4C(c4ccc(C5CC5)s4)Oc4cc(-c5cnc([C@@H]6CCCN6C(=O)[C@@H](NC(=O)OC)C(C)C)[nH]5)cc(F)c4-3)[nH]2)C[C@H](CC)O1` (single isomer, unassigned) [Compound 287] the same measures were 0.074 nM, 8.2 pM and 0.49 nM.
For `CC[C@@H]1CC(C(NC(=O)OC)C(=O)N2CCC[C@H]2c2ncc(-c3ccc4c(c3)cc3n4C(c4ccc(C5CC5)s4)Oc4cc(-c5cnc([C@@H]6CCCN6C(=O)[C@@H](NC(=O)OC)C(C)C)[nH]5)cc(F)c4-3)[nH]2)C[C@H](CC)O1` (single isomer, unassigned) [Compound 290] the same measures were 0.19 nM, 1.1 pM and 0.34 nM.
Taken in the same sequence, the figures for `CCc1ccc(C2Oc3cc(-c4cnc([C@@H]5CCCN5C(=O)C(NC(=O)OC)C5CCOC(C)(C)C5)[nH]4)cc(F)c3-c3cc4cc(-c5cnc([C@@H]6CCCN6C(=O)C(NC(=O)OC)C6CCOC(C)(C)C6)[nH]5)ccc4n32)s1` (single isomer, unassigned) [Compound 292] were 0.044 nM, 2.7 pM and 0.106 nM.
Take `CCc1ccc(C2Oc3cc(-c4cnc([C@@H]5CCCN5C(=O)C(NC(=O)OC)C5CCOC(C)(C)C5)[nH]4)cc(F)c3-c3cc4cc(-c5cnc([C@@H]6CCCN6C(=O)C(NC(=O)OC)C6CCOC(C)(C)C6)[nH]5)ccc4n32)s1` (single isomer, unassigned) [Compound 297]: the IC50 in test [1] (setting [4]) came to 8.37 nM; in test [2], 88.9 pM; in test [3] (read-out: 2B IC50, replicon 2B), 6.68 nM.
With `CCc1ccc(C2Oc3cc(-c4cnc([C@@H]5CCCN5C(=O)C(NC(=O)OC)C5CCOC(C)(C)C5)[nH]4)cc(F)c3-c3cc4cc(-c5cnc([C@@H]6CCCN6C(=O)C(NC(=O)OC)C6CCOC(C)(C)C6)[nH]5)ccc4n32)s1` (single isomer, unassigned) [Compound 298], the IC50 was determined as 1.22 nM in test [1] (setting [4]); 78.4 pM in test [2]; 2.09 nM in test [3] (read-out: 2B IC50, replicon 2B).
As for `CCc1ccc(C2Oc3cc(-c4cnc([C@@H]5CCCN5C(=O)C(NC(=O)OC)C5C[C@@H](C)O[C@@H](C)C5)[nH]4)cc(F)c3-c3cc4cc(-c5cnc([C@@H]6CCCN6C(=O)C(NC(=O)OC)C6C[C@@H](C)O[C@@H](C)C6)[nH]5)ccc4n32)s1` (single isomer, unassigned) [Compound 299], the IC50 was found to be 0.27 nM in test [1] (setting [4]); 1.7 pM in test [2] (Hepatitis C virus); 0.14 nM in test [3] (read-out: 2B IC50, replicon 2B).
Turning to `COC(=O)N[C@H](C(=O)N1CCC[C@H]1c1ncc(-c2cc(F)c3c(c2)OC(c2ccsc2)n2c-3cc3cc(-c4cnc([C@@H]5CCCN5C(=O)[C@@H](NC(=O)OC)C(C)C)[nH]4)ccc32)[nH]1)C(C)C` (single isomer, unassigned) [Compound 318], the IC50 was 5.9 nM in test [1] (setting [4]); 1.9 pM in test [2]; 6.87 nM in test [3] (read-out: 2B IC50, replicon 2B).
Take `COC(=O)N[C@H](C(=O)N1CCC[C@H]1c1ncc(-c2cc(F)c3c(c2)OC(c2cc(C)sc2C)n2c-3cc3cc(-c4cnc([C@@H]5CCCN5C(=O)[C@@H](NC(=O)OC)C(C)C)[nH]4)ccc32)[nH]1)C(C)C` (single isomer, unassigned) [Compound 319]: the results for the IC50 in test [1] (setting [5]), in test [2] (Hepatitis C virus) and in test [3] (setting [6]) were 9.38 nM, 1 pM and 8.06 nM, respectively.
Consider `COC(=O)N[C@H](C(=O)N1CCC[C@H]1c1ncc(-c2cc(F)c3c(c2)OC(c2cc(C)sc2C)n2c-3cc3cc(-c4cnc([C@@H]5CCCN5C(=O)[C@@H](NC(=O)OC)C(C)C)[nH]4)ccc32)[nH]1)C(C)C` (single isomer, unassigned) [Compound 320], for which the IC50 in test [1] (setting [4]) stood at 5.5 nM; in test [2], 1.1 pM; in test [3] (read-out: 2B IC50, replicon 2B) it was 5.1 nM.
In the case of `COC(=O)N[C@H](C(=O)N1CCC[C@H]1c1ncc(-c2cc(F)c3c(c2)OC(c2csc4ccccc24)n2c-3cc3cc(-c4cnc([C@@H]5CCCN5C(=O)[C@@H](NC(=O)OC)C(C)C)[nH]4)ccc32)[nH]1)C(C)C` (single isomer, unassigned) [Compound 323], the figures for the IC50 in test [1] (setting [5]), in test [2] (Hepatitis C virus) and in test [3] (setting [6]) were 2.51 nM, 2.1 pM and 15.8 nM, respectively.
